Data from US7262268B2, “Lipopeptide stereoisomers, methods for preparing same, and useful intermediates” (Cubist Pharmaceuticals, Inc., priority 2001, dated 2007).
Values after ≈ are worked out from the molar mass of the structure shown. Where two headings read alike, the source gives them in different places.

Experiments:
E. faecalis = assay type: cell-based
Protocol: (§1) Compounds according to Formula II were tested for antimicrobial activity against a panel of organisms according to standard procedures described by the National Committee for Clinical Laboratory Standards (NCCLS document M7-A5, Vol. 20, No. 2, 2000) except that all testing was performed at 37° C. Compounds were dissolved in 100% dimethyl sulfoxide and were diluted to the final reaction concentration (0.1 μg/mL-100 μg/mL) in microbial growth media. In all cases the final concentration of dimethyl sulfoxide incubated with cells is less than or equal to 1%. For minimum inhibitory concentration (MIC) calculations, 2-fold dilutions of compounds were added to wells of a microtiter plate containing 5×10^4 bacteria cells in a final volume of 100 μL of media (Mueller-Hinton Broth supplemented with 50 mg/L Ca^2+). The optical densities (OD) of the bacterial cells, which measures bacterial cell growth and proliferation, were measured using a commercial plate reader. The MIC value is defined as the lowest compound concentration inhibiting growth of the test organism.

S. aureus = assay type: cell-based
Protocol: as §1

[1] = Mueller-Hinton Broth supplemented with 50 mg/L Ca2+, 37° C., 2-fold dilutions

| Structure (SMILES) | MIC (μg/ml) E. faecalis (E. faecalis; [1]) | MIC (μg/ml) S. aureus (S. aureus; [1]) | MIC (μg/ml) E. faecalis (E. faecalis) | MIC (μg/ml) S. aureus (S. aureus) |
| --- | --- | --- | --- | --- |
| CCCCCCCCCC(=O)N[C@@H](Cc1c[nH]c2ccccc12)C(=O)N[C@@H](CC(N)=O)C(=O)N[C@@H](CC(=O)O)C(=O)N[C@@H]1C(=O)NCC(=O)N[C@@H](CCCN)C(=O)N[C@@H](CC(=O)O)C(=O)N[C@H](C)C(=O)N[C@@H](CC(=O)O)C(=O)NCC(=O)N[C@H](CO)C(=O)N[C@@H](C(C)CC(=O)O)C(=O)N[C@@H](CC(=O)c2ccccc2N)C(=O)O[C@@H]1C (stereo partly shown) [Compound HH] | 100 µg/mL (≈ 61.7 µM) | 6.25 µg/mL (≈ 3.86 µM) | – | – |
| CCCCCCCCCC(=O)N[C@@H](Cc1c[nH]c2ccccc12)C(=O)N[C@H](CC(N)=O)C(=O)N[C@@H](CC(=O)O)C(=O)N[C@@H]1C(=O)NCC(=O)N[C@@H](CCCN)C(=O)N[C@@H](CC(=O)O)C(=O)N[C@H](C)C(=O)N[C@@H](CC(=O)O)C(=O)NCC(=O)N[C@H](CO)C(=O)N[C@@H]([C@H](C)CC(=O)O)C(=O)N[C@@H](CC(=O)c2ccccc2N)C(=O)O[C@@H]1C [Daptomycin] | – | – | 6.26 µg/mL (≈ 3.86 µM) | 0.78 µg/mL (≈ 0.481 µM) |
